Consider 30 molecules from patent US9416115B2, “Fused heterocyclic compounds as ion channel modulators” (Gilead Sciences, Inc., priority 2013, dated 2016).

For experiment [1], the target named is wild-type human cardiac sodium channel, hNav1.5 (Homo sapiens, UniProt Q14524). The experiment is described as follows: Late INa screening assay (QPatch whole cell patch clamp, Tefluthrin-induced late current). In kind it is cell-based. The settings on record: 1 uM; HEK293 hNav1.5; percent block of late INa. The procedure, abridged: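 HEK293 cells stably expressing hNav1.5 without beta subunits were whole-cell patch clamped at 23-25 °C, stepping from −120 to −20 mV for 250 ms at 0.1 Hz. Late current (240–265 ms) was induced with 10 μM Tefluthrin, and compounds were added typically at 0.3 or 1 μM. Percent block was taken against 0 Na baseline with rundown correction.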
wild-type human cardiac sodium channel, hNav1.5, sequence (Q14524 whole entry): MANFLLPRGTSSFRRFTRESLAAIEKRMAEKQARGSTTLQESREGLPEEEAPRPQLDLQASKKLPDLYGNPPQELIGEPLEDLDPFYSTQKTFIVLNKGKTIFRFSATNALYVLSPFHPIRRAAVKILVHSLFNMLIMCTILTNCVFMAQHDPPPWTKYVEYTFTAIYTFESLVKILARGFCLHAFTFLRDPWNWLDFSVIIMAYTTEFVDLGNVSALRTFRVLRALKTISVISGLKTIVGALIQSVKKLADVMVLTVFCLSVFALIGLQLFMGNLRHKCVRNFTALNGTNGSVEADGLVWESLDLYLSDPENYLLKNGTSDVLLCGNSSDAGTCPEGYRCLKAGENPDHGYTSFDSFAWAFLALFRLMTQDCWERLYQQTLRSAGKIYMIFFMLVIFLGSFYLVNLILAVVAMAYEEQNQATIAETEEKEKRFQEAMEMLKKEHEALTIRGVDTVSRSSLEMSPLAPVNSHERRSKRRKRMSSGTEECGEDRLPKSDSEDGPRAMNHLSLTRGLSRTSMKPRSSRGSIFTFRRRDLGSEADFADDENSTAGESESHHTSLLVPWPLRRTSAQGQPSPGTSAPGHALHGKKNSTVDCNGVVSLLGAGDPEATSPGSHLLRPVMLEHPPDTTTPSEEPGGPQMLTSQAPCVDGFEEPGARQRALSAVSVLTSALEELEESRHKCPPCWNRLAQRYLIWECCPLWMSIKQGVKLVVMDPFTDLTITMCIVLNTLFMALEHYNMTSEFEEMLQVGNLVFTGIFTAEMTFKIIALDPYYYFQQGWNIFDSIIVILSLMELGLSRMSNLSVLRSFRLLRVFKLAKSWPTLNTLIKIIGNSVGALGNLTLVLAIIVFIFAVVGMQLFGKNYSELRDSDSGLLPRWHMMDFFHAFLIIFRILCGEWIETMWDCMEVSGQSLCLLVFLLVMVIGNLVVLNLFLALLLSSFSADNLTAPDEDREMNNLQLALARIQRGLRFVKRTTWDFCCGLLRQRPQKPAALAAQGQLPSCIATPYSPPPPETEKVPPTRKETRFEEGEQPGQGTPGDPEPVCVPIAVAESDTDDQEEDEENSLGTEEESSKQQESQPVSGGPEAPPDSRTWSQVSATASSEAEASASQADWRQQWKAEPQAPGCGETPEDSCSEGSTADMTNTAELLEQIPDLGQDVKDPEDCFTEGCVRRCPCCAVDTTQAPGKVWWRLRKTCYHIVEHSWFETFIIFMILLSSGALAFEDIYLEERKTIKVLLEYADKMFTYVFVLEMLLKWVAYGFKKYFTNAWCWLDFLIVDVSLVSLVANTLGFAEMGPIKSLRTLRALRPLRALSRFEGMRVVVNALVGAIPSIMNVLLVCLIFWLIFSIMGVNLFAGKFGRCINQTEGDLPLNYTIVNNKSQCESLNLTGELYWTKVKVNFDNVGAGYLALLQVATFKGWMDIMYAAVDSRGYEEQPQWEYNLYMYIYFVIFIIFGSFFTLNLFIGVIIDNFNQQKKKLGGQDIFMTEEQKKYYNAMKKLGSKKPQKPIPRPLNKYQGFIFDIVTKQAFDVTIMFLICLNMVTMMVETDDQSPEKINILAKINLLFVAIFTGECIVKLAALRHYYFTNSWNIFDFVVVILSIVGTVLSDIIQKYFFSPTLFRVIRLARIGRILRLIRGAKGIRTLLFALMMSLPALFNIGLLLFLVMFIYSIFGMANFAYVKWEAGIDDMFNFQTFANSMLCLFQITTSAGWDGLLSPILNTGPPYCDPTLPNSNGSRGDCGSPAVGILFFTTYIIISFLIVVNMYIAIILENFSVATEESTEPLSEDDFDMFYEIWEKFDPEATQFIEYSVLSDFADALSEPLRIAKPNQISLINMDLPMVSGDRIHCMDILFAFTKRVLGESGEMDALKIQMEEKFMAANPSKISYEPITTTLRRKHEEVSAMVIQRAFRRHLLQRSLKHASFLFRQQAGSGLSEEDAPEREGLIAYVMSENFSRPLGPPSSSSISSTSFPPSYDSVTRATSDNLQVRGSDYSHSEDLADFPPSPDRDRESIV
A general note: Patch clamp records ionic current or voltage across a cell membrane.

For a further experiment, the target named is T1, hNaV1.2 (SCN2A) (Homo sapiens, UniProt Q99250).
T1 construct: expressed in transfected cells
T1 sequence (Q99250 whole entry): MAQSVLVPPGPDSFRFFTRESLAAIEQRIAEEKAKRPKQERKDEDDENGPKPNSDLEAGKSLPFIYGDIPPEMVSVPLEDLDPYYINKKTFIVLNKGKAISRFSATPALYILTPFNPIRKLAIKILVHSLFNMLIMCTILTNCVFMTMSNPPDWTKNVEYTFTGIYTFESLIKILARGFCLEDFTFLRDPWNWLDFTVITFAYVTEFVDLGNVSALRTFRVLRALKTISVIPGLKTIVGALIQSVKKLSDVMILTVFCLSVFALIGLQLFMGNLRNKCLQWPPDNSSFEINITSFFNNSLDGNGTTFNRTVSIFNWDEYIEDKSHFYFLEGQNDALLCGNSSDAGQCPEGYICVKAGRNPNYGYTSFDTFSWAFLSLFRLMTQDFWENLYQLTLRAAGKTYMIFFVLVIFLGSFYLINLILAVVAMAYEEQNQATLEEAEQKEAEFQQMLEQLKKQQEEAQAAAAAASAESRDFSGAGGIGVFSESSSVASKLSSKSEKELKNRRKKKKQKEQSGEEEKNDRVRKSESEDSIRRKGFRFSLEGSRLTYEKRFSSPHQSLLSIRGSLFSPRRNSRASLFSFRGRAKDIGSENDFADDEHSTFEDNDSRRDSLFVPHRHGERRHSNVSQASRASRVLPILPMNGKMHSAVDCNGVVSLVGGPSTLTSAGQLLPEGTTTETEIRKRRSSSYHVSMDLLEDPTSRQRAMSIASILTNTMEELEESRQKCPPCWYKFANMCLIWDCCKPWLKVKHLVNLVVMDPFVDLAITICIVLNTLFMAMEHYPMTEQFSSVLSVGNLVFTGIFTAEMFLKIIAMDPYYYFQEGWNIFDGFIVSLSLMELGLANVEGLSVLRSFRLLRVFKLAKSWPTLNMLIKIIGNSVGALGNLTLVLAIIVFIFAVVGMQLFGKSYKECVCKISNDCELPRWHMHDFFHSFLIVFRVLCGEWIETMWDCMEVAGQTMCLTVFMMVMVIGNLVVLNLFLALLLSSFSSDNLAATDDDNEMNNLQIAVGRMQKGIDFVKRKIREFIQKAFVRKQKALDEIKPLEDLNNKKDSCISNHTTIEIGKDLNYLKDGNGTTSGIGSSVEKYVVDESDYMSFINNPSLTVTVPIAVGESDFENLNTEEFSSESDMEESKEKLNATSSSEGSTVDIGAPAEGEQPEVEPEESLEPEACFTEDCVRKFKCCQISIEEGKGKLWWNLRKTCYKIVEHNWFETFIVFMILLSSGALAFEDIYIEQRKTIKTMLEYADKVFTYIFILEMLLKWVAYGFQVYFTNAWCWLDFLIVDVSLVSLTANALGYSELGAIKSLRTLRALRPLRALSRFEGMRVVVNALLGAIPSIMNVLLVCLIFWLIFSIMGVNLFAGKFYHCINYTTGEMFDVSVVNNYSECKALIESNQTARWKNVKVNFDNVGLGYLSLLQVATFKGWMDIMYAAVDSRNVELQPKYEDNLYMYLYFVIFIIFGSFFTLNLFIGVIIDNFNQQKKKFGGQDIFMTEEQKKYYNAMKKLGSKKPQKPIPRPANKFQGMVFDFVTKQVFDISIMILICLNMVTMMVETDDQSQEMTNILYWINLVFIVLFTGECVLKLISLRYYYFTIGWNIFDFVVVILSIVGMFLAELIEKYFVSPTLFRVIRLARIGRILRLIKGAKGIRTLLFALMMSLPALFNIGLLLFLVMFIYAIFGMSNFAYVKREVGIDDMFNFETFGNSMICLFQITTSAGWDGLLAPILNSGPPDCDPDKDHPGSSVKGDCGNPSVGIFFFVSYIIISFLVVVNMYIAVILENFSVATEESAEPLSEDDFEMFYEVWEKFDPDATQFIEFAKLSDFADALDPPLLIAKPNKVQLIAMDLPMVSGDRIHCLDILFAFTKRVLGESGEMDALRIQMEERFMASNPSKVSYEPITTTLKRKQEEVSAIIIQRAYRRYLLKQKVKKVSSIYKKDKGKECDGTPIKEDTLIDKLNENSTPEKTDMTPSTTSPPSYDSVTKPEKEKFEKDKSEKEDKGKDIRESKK
T1 sequence (Q07699 19-218 partner): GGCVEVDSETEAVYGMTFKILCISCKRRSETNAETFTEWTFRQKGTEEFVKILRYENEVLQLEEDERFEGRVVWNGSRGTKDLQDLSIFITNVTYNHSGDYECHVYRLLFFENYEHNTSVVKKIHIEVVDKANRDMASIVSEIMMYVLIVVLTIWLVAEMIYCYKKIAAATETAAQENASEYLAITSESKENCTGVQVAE
T1 sequence (O60939 30-215 partner): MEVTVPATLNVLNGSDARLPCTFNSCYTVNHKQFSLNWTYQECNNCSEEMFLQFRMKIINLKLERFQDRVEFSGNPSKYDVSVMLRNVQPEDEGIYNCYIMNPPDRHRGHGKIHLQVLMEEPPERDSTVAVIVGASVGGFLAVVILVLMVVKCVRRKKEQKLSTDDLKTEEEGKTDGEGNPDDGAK
The experiment is described as follows: Use-dependent inhibition of the CNS Nav1.2 sodium channel. Format: cell-based. The conditions noted are these: use-dependent block, 25 Hz, pulse 20, read-out: Nav1.2 UDB 25 Hz 10 uM. The procedure, abridged: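 Use-dependent block of human Nav1.2 was measured by automated whole-cell patch clamp (QPatch) in HEK-293 cells stably expressing hNaV1.2 with SCN1B and SCN2B. From a holding potential of −120 mV, a train of 20 pulses to 0 mV (20 ms, 25 Hz) was applied. Peak current at pulse 20 was normalized to the first pulse, and percent inhibition was calculated relative to compound-free recordings.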

`Fc1cc(-c2ccc(OC(F)(F)F)cc2)cc2c(OCc3ncccn3)noc12` [Example 17, 7-fluoro-3-(pyrimidin-2-ylmethoxy)-5-(4-(trifluoromethoxy)phenyl)benzo[d]isoxazole] came in with an inhibition at 1 µM in experiment [1] of 45.9%. Further, the inhibition at 10 µM at hNaV1.2 (SCN2A) is below 5%.

`Cc1cc(-c2cc(C)c3onc(OCc4ncccn4)c3c2)ccc1OC(F)(F)F` [Example 18, 7-methyl-5-(3-methyl-4-(trifluoromethoxy)phenyl)-3-(pyrimidin-2-ylmethoxy)benzo[d]isoxazole]: in experiment [1], the inhibition at 1 µM was determined as 38.2%. Besides, at hNaV1.2 (SCN2A), the inhibition at 10 µM is below 5%.

For the molecule `FC(F)(F)COc1ccc(-c2ccc3onc(OCc4ncccn4)c3c2)cn1` [Example 21, 3-(pyrimidin-2-ylmethoxy)-5-(6-(2,2,2-trifluoroethoxy)pyridin-3-yl)benzo[d]isoxazole], the inhibition at 1 µM in experiment [1] was 48.8%. Also, the inhibition at 10 µM at hNaV1.2 (SCN2A) was below 5%.

Regarding `COc1cc(-c2ccc(OC(F)(F)F)c(C)c2)cc2c(OCc3ncccn3)noc12` [Example 23, 7-methoxy-5-(3-methyl-4-(trifluoromethoxy)phenyl)-3-(pyrimidin-2-ylmethoxy)benzo[d]isoxazole], the inhibition at 1 µM in experiment [1] amounted to 45.3%. Further, the inhibition at 10 µM on hNaV1.2 (SCN2A) was determined as 9.9%.

As to `COc1cc(-c2ccc(C(F)(F)F)cc2F)cc2c(OCc3ncccn3)noc12` [Example 24, 5-(2-fluoro-4-(trifluoromethyl)phenyl)-7-methoxy-3-(pyrimidin-2-ylmethoxy)benzo[d]isoxazole], in experiment [1], the inhibition at 1 µM was determined as 36%. Further, the inhibition at 10 µM at hNaV1.2 (SCN2A) is below 5%.

In experiment [1], `COc1cc(-c2ccc(OC(F)(F)F)cc2C)cc2c(OCc3ncccn3)noc12` [Example 25, 7-methoxy-5-(2-methyl-4-(trifluoromethoxy)phenyl)-3-(pyrimidin-2-ylmethoxy)benzo[d]isoxazole] showed an inhibition at 1 µM of 41.3%. In addition, at hNaV1.2 (SCN2A), the inhibition at 10 µM is below 5%.

In experiment [1], `Cc1cc2onc(OCc3ncccn3)c2cc1-c1ccc(OC(F)(F)F)cc1` [Example 26, 6-methyl-3-(pyrimidin-2-ylmethoxy)-5-(4-(trifluoromethoxy)phenyl)benzo[d]isoxazole] had an inhibition at 1 µM of 49.6%. For the same molecule, at hNaV1.2 (SCN2A), the inhibition at 10 µM is below 5%.

Regarding `Cc1cc(-c2cc3c(OCc4ncccn4)noc3cc2C)ccc1OC(F)(F)F` [Example 27, 6-methyl-5-(3-methyl-4-(trifluoromethoxy)phenyl)-3-(pyrimidin-2-ylmethoxy)benzo[d]isoxazole], in experiment [1], the inhibition at 1 µM was 35.1%. The inhibition at 10 µM on hNaV1.2 (SCN2A) was below 5%.

In the case of `Cc1cc(OC(F)(F)F)ccc1-c1cc2c(OCc3ncccn3)noc2cc1C` [Example 29, 6-methyl-5-(2-methyl-4-(trifluoromethoxy)phenyl)-3-(pyrimidin-2-ylmethoxy)benzo[d]isoxazole], the inhibition at 1 µM in experiment [1] came out at 46.4%. The inhibition at 10 µM on hNaV1.2 (SCN2A) was below 5%.

For the molecule `FC1(F)Oc2ccc(-c3ccc4onc(OCc5ncccn5)c4c3)cc2O1` [Example 30, 5-(2,2-difluorobenzo[d][1,3]dioxol-5-yl)-3-(pyrimidin-2-ylmethoxy)benzo[d]isoxazole], in experiment [1], the inhibition at 1 µM is 42.5%. Moreover, at hNaV1.2 (SCN2A), the inhibition at 10 µM was below 5%.

In experiment [1], `Fc1cc2onc(OCc3ncccn3)c2cc1-c1ccc(OC(F)(F)F)cc1` [Example 31, 6-fluoro-3-(pyrimidin-2-ylmethoxy)-5-(4-(trifluoromethoxy)phenyl)benzo[d]isoxazole] yielded an inhibition at 1 µM of 43.9%. Moreover, on hNaV1.2 (SCN2A), the inhibition at 10 µM was below 5%.

In turn, `Fc1cc(C(F)(F)F)ccc1-c1cc2c(OCc3ncccn3)noc2cc1F` [Example 33, 6-fluoro-5-(2-fluoro-4-(trifluoromethyl)phenyl)-3-(pyrimidin-2-ylmethoxy)benzo[d]isoxazole] returned an inhibition at 1 µM in experiment [1] of 35.5%. In addition, on hNaV1.2 (SCN2A), the inhibition at 10 µM turned out to be 5.5%.

As for `Fc1cc2onc(OCc3ncccn3)c2cc1-c1ccc2c(c1)OC(F)(F)O2` [Example 35, 5-(2,2-difluorobenzo[d][1,3]dioxol-5-yl)-6-fluoro-3-(pyrimidin-2-ylmethoxy)benzo[d]isoxazole], in experiment [1], the inhibition at 1 µM stood at 33.6%. In addition, the inhibition at 10 µM on hNaV1.2 (SCN2A) is below 5%.

In turn, `Cn1cc(COc2noc3ccc(-c4ccc(OC(F)(F)F)cc4)cc23)nn1` [Example 44] yielded an inhibition at 1 µM in experiment [1] of 48.2%. In addition, the inhibition at 10 µM on hNaV1.2 (SCN2A) stood at 25.4%.

`FC(F)(F)Oc1ccc(-c2ccc3onc(OCc4cn[nH]c4)c3c2)cc1` [Example 45, 3-((1H-pyrazol-4-yl)methoxy)-5-(4-(trifluoromethoxy)phenyl)benzo[d]isoxazole] gave an inhibition at 1 µM in experiment [1] of 43.6%. Moreover, the inhibition at 10 µM at hNaV1.2 (SCN2A) stood at 42.8%.

With `CC(C)n1ccnc1COc1noc2ccc(-c3ccc(OC(F)(F)F)cc3)cc12` [Example 48, 3-((1-isopropyl-1H-imidazol-2-yl)methoxy)-5-(4-(trifluoromethoxy)phenyl)benzo[d]isoxazole], in experiment [1], the inhibition at 1 µM came to 51.2%. Besides, the inhibition at 10 µM on hNaV1.2 (SCN2A) came to 54.2%.

Consider `CCn1cncc1COc1noc2ccc(-c3ccc(OC(F)(F)F)cc3)cc12` [Example 49, 3-((1-ethyl-1H-imidazol-5-yl)methoxy)-5-(4-(trifluoromethoxy)phenyl)benzo[d]isoxazole], for which the inhibition at 1 µM in experiment [1] turned out to be 39.6%. In addition, the inhibition at 10 µM at hNaV1.2 (SCN2A) is 49.9%.

On to `Cn1cncc1COc1noc2ccc(-c3ccc(OC(F)(F)F)cc3)cc12` [Example 50, 3-((1-methyl-1H-imidazol-5-yl)methoxy)-5-(4-(trifluoromethoxy)phenyl)benzo[d]isoxazole], for which the inhibition at 1 µM in experiment [1] is 32.5%. At hNaV1.2 (SCN2A), the inhibition at 10 µM was 27.3%.

Regarding `FC(F)(F)Oc1ccc(-c2ccc3onc(OCc4cn5ccccc5n4)c3c2)cc1` [Example 51, 3-(imidazo[1,2-a]pyridin-2-ylmethoxy)-5-(4-(trifluoromethoxy)phenyl)benzo[d]isoxazole], the inhibition at 1 µM in experiment [1] was 38.8%. For the same molecule, on hNaV1.2 (SCN2A), the inhibition at 10 µM turned out to be 15.7%.

In turn, `O=C1CC[C@H](COc2noc3ccc(-c4ccc(OC(F)(F)F)cc4)cc23)N1` [Example 61, (R)-5-(((5-(4-(trifluoromethoxy)phenyl)benzo[d]isoxazol-3-yl)oxy)methyl)pyrrolidin-2-one] returned an inhibition at 1 µM in experiment [1] of 38.2%. Further, the inhibition at 10 µM on hNaV1.2 (SCN2A) stood at 31%.

Take `FC(F)(F)Oc1ccc(-c2ccc3onc(OCCn4cnnc4)c3c2)cc1` [Example 63, 3-(2-(4H-1,2,4-triazol-4-yl)ethoxy)-5-(4-(trifluoromethoxy)phenyl)benzo[d]isoxazole]: the inhibition at 1 µM in experiment [1] was 44.1%. Moreover, the inhibition at 10 µM on hNaV1.2 (SCN2A) stood at 68%.

Molecule `FC(F)(F)Oc1ccc(-c2ccc3onc(OCc4nccn4-c4ccccc4)c3c2)cc1` [Example 64, 3-((1-phenyl-1H-imidazol-2-yl)methoxy)-5-(4-(trifluoromethoxy)phenyl)benzo[d]isoxazole] had an inhibition at 1 µM in experiment [1] of 30.7%. Also, the inhibition at 10 µM at hNaV1.2 (SCN2A) amounted to 34.7%.

In experiment [1], `Cc1nc(C)n(CCOc2noc3ccc(-c4ccc(OC(F)(F)F)cc4)cc23)n1` [Example 76, 3-(2-(3,5-dimethyl-1H-1,2,4-triazol-1-yl)ethoxy)-5-(4-(trifluoromethoxy)phenyl)benzo[d]isoxazole] gave an inhibition at 1 µM of 55.2%. The inhibition at 10 µM at hNaV1.2 (SCN2A) was 27.9%.

`CC(COc1noc2ccc(-c3ccc(OC(F)(F)F)cc3)cc12)n1cncn1` (stereo not drawn) [Example 77, 3-(2-(1H-1,2,4-triazol-1-yl)propoxy)-5-(4-(trifluoromethoxy)phenyl)benzo[d]isoxazole] showed an inhibition at 1 µM in experiment [1] of 49.2%. Also, the inhibition at 10 µM at hNaV1.2 (SCN2A) was found to be 31.8%.

`FC(F)(F)Oc1ccc(-c2ccc3onc(OCCN4CCOCC4)c3c2)cc1` [Example 78, 3-(2-morpholinoethoxy)-5-(4-(trifluoromethoxy)phenyl)benzo[d]isoxazole]: in experiment [1], the inhibition at 1 µM was 47.1%. Also, the inhibition at 10 µM at hNaV1.2 (SCN2A) worked out at 32.8%.

For the molecule `Cc1nc(C)n(C(C)COc2noc3ccc(-c4ccc(OC(F)(F)F)cc4)cc23)n1` (stereo not drawn) [Example 79, 3-(2-(3,5-dimethyl-1H-1,2,4-triazol-1-yl)propoxy)-5-(4-(trifluoromethoxy)phenyl)benzo[d]isoxazole], the inhibition at 1 µM in experiment [1] was found to be 46.1%. Also, at hNaV1.2 (SCN2A), the inhibition at 10 µM is 34%.

Molecule `O=C1CCCN1CCOc1noc2c(F)cc(-c3ccc(OC(F)(F)F)cc3)cc12` [Example 80, 1-(2-((7-fluoro-5-(4-(trifluoromethoxy)phenyl)benzo[d]isoxazol-3-yl)oxy)ethyl)pyrrolidin-2-one] had an inhibition at 1 µM in experiment [1] of 35.6%. Also, on hNaV1.2 (SCN2A), the inhibition at 10 µM came to 17.5%.

As for `COc1ccnc(COc2noc3ccc(-c4ccc(OC(F)(F)F)cc4)cc23)c1` [Example 81, 3-((4-methoxypyridin-2-yl)methoxy)-5-(4-(trifluoromethoxy)phenyl)benzo[d]isoxazole], the inhibition at 1 µM in experiment [1] is 33.7%. Also, the inhibition at 10 µM on hNaV1.2 (SCN2A) was 21.8%.

Turning to `Cc1cc(-c2ccc(OC(F)(F)F)cc2)cc2c(OCCn3cncn3)noc12` [Example 89, 3-(2-(1H-1,2,4-triazol-1-yl)ethoxy)-7-methyl-5-(4-(trifluoromethoxy)phenyl)benzo[d]isoxazole], the inhibition at 1 µM in experiment [1] turned out to be 33.2%. The inhibition at 10 µM on hNaV1.2 (SCN2A) was determined as 52%.

For the molecule `Cc1cc(-c2ccc(OC(F)(F)F)cc2)cc2c(OCc3ncco3)noc12` [Example 91, 7-methyl-3-(oxazol-2-ylmethoxy)-5-(4-(trifluoromethoxy)phenyl)benzo[d]isoxazole], the inhibition at 1 µM in experiment [1] amounted to 53%. Further, the inhibition at 10 µM at hNaV1.2 (SCN2A) is 46.9%.
